Experimental findings from patent EP0335545B2, “Pharmaceutical formulations for parenteral use” (UNIVERSITY OF FLORIDA, priority 1988, dated 1989) are described below.

In brackets after ≈: the same amount, converted by molar mass.

Data set [1] in a line: physchem. The procedure: For comparison, the solubilities of the drugs in water were also determined.
• Wavelength: 245 nm • Column: Waters µBondapak CN, 3.9 mm (id.) x 30 cm • Mobile phase: acetonitrile, acetic acid, water (60:1:39) containing 0.1% 1-hexasulfonic acid, sodium salt • Flow rate: 2.00 mL/min.
• Wavelength: 263 nm • Column: ASI C18, 10 µm, 3.9 mm (i.d.) x 30 cm • Mobile phase: acetonitrile, water (55:45) • Flow rate: 1.00 mL/min.
• Wavelength: 241 nm • Column: Waters µBondapak CN, 3.9 mm (i.d.) x 30 cm • Mobile phase: acetonitrile, water (6:4) • Flow rate: 2.00 mL/min.
• Wavelength: 280 nm • Column: ASI C18, 10 µm, 3.9 mm (i.d.) x 30 cm • Mobile phase: acetonitrile, water (55:45) • Flow rate: 2.00 mL/min.
• Wavelength: 248 nm • Column: Fisher Resolvex C18, 4.6 mm (i.d.) x 25 cm • Mobile phase: acetonitrile, water (6:4) • Flow rate: 1.50 mL/min.
• Wavelength: 248 nm • Column: Fisher Resolvex C18, 4.6 mm (i.d.) x 25 cm • Mobile phase: acetonitrile, water (7:3) • Flow rate: 2.00 mL/min.
• Wavelength: 253 nm • Column: Waters µBondapak CN, 3.9 mm (i.d.) x 30 cm • Mobile phase: acetonitrile, […], water (60:1:39) containing 0.1% 1-hexanesulfonic acid, sodium salt • Flow rate: 2.00 mL/min.
• Wavelength 308 nm • Column: Fisher Resolvex C18, 4.6 mm (i.d.) x 25 cm • Mobile phase: methanol, acetic acid, water (50:1:49) containing 0.1% 1-octanesulfonic acid, sodium salt • Flow rate: 2.00 mL/min.
• Wavelength: 240 nm • Column: Fisher Resolvex C18, 4.6 mm (i.d.) x 25 cm • Mobile phase: acetonitrile, water (6:4) • Flow rate: 1.50 mL/min.
• Wavelength: 240 nm • Column: Fisher Resolvex C18, 4.6 mm (i.d.) x 25 cm Mobile phase: acetonitrile, water (7:3) • Flow rate: 2.00 mL/min.
• Wavelength: 241 nm • Column: Fisher Resolvex C18, 4.6 mm (i.d.) x 25 cm • Mobile phase: acetonitrile, water (7:3) • Flow rate: 2.00 mL/min.
• Wavelength: 230 nm • Column: Waters µBondapak CN, 3.9 mm (i.d.) x 30 cm • Mobile phase: acetonitrile, water (35:65) • Flow rate: 2.00 mL/min.
• Wavelength: 258 nm • Column: Fisher Resolvex C18, 4.6 mm (i.d.) x 25 cm • Mobile phase: acetonitrile, water (55:45) • Flow rate: 2.00 mL/min.
• Wavelength: 325 nm • Column: Waters µBondapak C18, 10 µm, 3.9 mm (i.d.) x 30 cm • Mobile phase: acetonitrile, water (55:45) • Flow rate: 1.00 mL/min.

Data set [2] in a line: Phase-solubility experiments in aqueous HPCD at 30.0±0.2°C (chlorambucil, lomustine, melphalan).
Protocol: (§1) After equilibration in a 30.0±0.2°C water bath in the dark for up to 72 hours, aliquots of the mixtures were filtered through 0.45 Mm membrane filters, diluted and the drug concentration determined by HPLC or UV methods.
A short description of data set [3]: physchem. Particulars: for solubility at 4 h: 50% aqueous hpcd.
Protocol: as §1
Data set [4] is described as follows: Preparation of solid freeze-dried HPCD complexes: degree of incorporation. Type of data set: physicochemical. Particulars: freeze-dried complex from 50% w/w HPCD (ASDS 5.1). The procedure:
An excess of E2-CDS was added and the solution then was purged with helium. The resulting suspension was then sonicated for 30 minutes, filtered through a glass filter (ASTM 10-15M, Pyrex No. 36060) and freeze-dried overnight. Best results were obtained by hard-freezing the aqueous solution of the E2-CDS/HPCD complex for at least 10 hours before lyophilization. The degree of complex formation was determined by dissolving a small amount of the dry complex in methanol and then analyzing by high pressure liquid chromatography (HPLC).
An excess of E2-CDS or other CDS was added to a 50% w/w solution of HPCD. The suspension was sonicated for 30 minutes, filtered through 0.45 µm PVDF membranes and freeze-dried. The degree of incorporation was determined either spectrophotometrically or by HPLC. In some cases, the effect of solubilizing agents on the degree of incorporation was examined. This involved adding small amounts of polyoxyethylene 20 cetyl ether (Brij), polyoxyethylene sorbitan monooleate (Tween 80) or ethanol to the aqueous solution prior to lyophilization.
The retention time was 5.2 min. Other compounds were assayed spectrophotometrically.
The solution was degassed and the suspension was sonicated for 30 minutes, after which it was filtered and the filtrate was lyophilized. The dried filtrate contained 65.6 mg testosterone propionate or 29.6 mg T-CDS1 per gram of cyclodextrin complex. Compounds were analyzed for decomposition by thin-layer chromatography and ultraviolet absorption.

Data set [5] in a line: Solubilizing effect of a 50% w/w solution of HPCD on steroids and CDS. Particulars: 50% w/w aqueous hpcd. The procedure: An excess of E2-CDS was sonicated with an aqueous solution of the appropriate solubilizing agent for 30 minutes. The suspension was then centrifuged, filtered through 0.45 µm polyvinylidene difluoride (Millex-HV4, Millipore®) membranes and analyzed by HPLC. […] An estimation of the bulk equilibrium constant was obtained by correlating the millimolarity of E2-CDS solubilized and the millimolarity of the cyclodextrin added. This latter value was calculated using the average molecular weight of the isomeric mixture determined by mass spectroscopy. The solubilizing effect of a 50% w/w solution of HPCD was also examined for a series of steroids and dihydropyridines (CDS). These studies were carried out in a similar manner to those previously described.
For the CDS, the wavelength monitored was 360 nm while for estrogen 220 nm was used.
Separation was achieved on an Analytical Sciences, Inc. (ASI) 10 µm particle size, C18 reversed phase 30 cm x 3.9 mm i.d. analytical column. The flow rate was 1 mL/min, the compounds were detected at 360 nm and in all determinations the temperature was ambient. […] For the GABA-CDS1, a mobile phase consisting of 50:1:1:48 of the same components was required. […] Other compounds were assayed spectrophotometrically.

Broadly, the solubility is the concentration that dissolves in the medium under given conditions. A low value points to a poorly soluble substance. With `C#C[C@]1(O)CC[C@H]2[C@@H]3CCc4cc(OC)ccc4[C@H]3CC[C@@]21C` [Ethynylestradiol 3-methyl ether], the “Increase in Solubility (HPCD/water)” value in “physchem [1]” is listed as “∼13,000”. The solubility in “physchem [1]” (25% w/v hpcd) was 7130 µg/mL (≈ 23 mM); in the data set “physchem [1]” (50% w/w hpcd), 13300 µg/mL (≈ 42.8 mM); in “physchem [1]” (water) it was 1 µg/mL (≈ 0.00322 mM).
Turning to `O=NN(CCCl)C(=O)NC1CCCCC1` [Lomustine], the solubility was determined as 380 µg/mL (≈ 1.63 mM) in data set [2] (1% w/w aqueous hpcd); 1680 µg/mL (≈ 7.19 mM) in data set [2] (5% w/w aqueous hpcd); 3330 µg/mL (≈ 14.2 mM) in data set [2] (10% w/w aqueous hpcd); 6260 µg/mL (≈ 26.8 mM) in data set [2] (15% w/w aqueous hpcd); 8440 µg/mL (≈ 36.1 mM) in data set [2] (20% w/v aqueous hpcd); 8440 µg/mL (≈ 36.1 mM) in data set [2] (20% w/w aqueous hpcd). Moreover, the solubility in data set [2] (25% w/v aqueous hpcd) came out at 8900 µg/mL (≈ 38.1 mM); in data set [2] (25% w/w aqueous hpcd) it was 8900 µg/mL (≈ 38.1 mM); in data set [2] (water), 180 µg/mL (≈ 0.77 mM); in data set [2] (water (0% hpcd)), 180 µg/mL (≈ 0.77 mM). The “increase: water/25% HPCD” value in data set [2] (25% HPCD versus water) was found to be 49.44. In data set [2] (50% w/w aqueous hpcd), the solubility at 4 h is approximately 12000 µg/mL (≈ 51.3 mM). In data set [2] (aqueous HPCD, 30°), the “degradation during the solubility experiments” value is “Some degradation occurred”.
Turning to `O=C(O)CCCc1ccc(N(CCCl)CCCl)cc1` [Chlorambucil], the solubility at 3 h stood at 740 µg/mL (≈ 2.43 mM) in “physchem [3]” (1% aqueous hpcd); 1480 µg/mL (≈ 4.86 mM) in “physchem [3]” (2% aqueous hpcd); 2370 µg/mL (≈ 7.79 mM) in “physchem [3]” (3% aqueous hpcd); 3220 µg/mL (≈ 10.6 mM) in the data set “physchem [3]” (4% aqueous hpcd); 1460 µg/mL (≈ 4.8 mM) in the data set “physchem [3]” (5% aqueous hpcd); 4960 µg/mL (≈ 16.3 mM) in the data set “physchem [3]” (10% aqueous hpcd). In addition, the solubility at 3 h in “physchem [3]” (15% aqueous hpcd) stood at 6360 µg/mL (≈ 20.9 mM); in “physchem [3]” (20% aqueous hpcd), 8490 µg/mL (≈ 27.9 mM); in “physchem [3]” (25% aqueous hpcd), 8850 µg/mL (≈ 29.1 mM); in the data set “physchem [3]” (aqueous 7% hpcd) it was 2710 µg/mL (≈ 8.91 mM); in “physchem [3]” (water (0% hpcd)) it was 10 µg/mL (≈ 0.0329 mM). Moreover, the solubility at 84 h in the data set “physchem [3]” (1% aqueous hpcd) came to 550 µg/mL (≈ 1.81 mM); in the data set “physchem [3]” (2% aqueous hpcd), 840 µg/mL (≈ 2.76 mM); in the data set “physchem [3]” (3% aqueous hpcd) it was 680 µg/mL (≈ 2.24 mM); in “physchem [3]” (4% aqueous hpcd), 1500 µg/mL (≈ 4.93 mM); in the data set “physchem [3]” (5% aqueous hpcd) it was 1800 µg/mL (≈ 5.92 mM); in the data set “physchem [3]” (7% aqueous hpcd), 3760 µg/mL (≈ 12.4 mM). The solubility at 84 h was determined as 5200 µg/mL (≈ 17.1 mM) in the data set “physchem [3]” (10% aqueous hpcd); 7600 µg/mL (≈ 25 mM) in “physchem [3]” (15% aqueous hpcd); 13100 µg/mL (≈ 43 mM) in “physchem [3]” (20% aqueous hpcd); 18400 µg/mL (≈ 60.5 mM) in the data set “physchem [3]” (25% aqueous hpcd); 410 µg/mL (≈ 1.35 mM) in the data set “physchem [3]” (water (0% hpcd)). Further, the solubility was 13100 µg/mL (≈ 43 mM) in “physchem [3]” (20% aqueous hpcd), 18400 µg/mL (≈ 60.5 mM) in the data set “physchem [3]” (25% aqueous hpcd) and 410 µg/mL (≈ 1.35 mM) in “physchem [3]” (water). The solubility at 4 h in “physchem [3]” is approximately 30000 µg/mL (≈ 98.6 mM).
Take `C#C[C@]1(OC(C)=O)CC[C@H]2[C@@H]3CCC4=CC(=O)CC[C@@H]4[C@H]3CC[C@@]21C` [Norethindrone acetate]: in “physchem [1]”, the “Increase in Solubility (HPCD/water)” value was “∼97,500”. Moreover, the figures for the solubility in “physchem [1]” (25% w/v hpcd), in the data set “physchem [1]” (50% w/w hpcd) and in the data set “physchem [1]” (water) were 9410 µg/mL, 19500 µg/mL and 0.2 µg/mL, respectively.
As to `CN(Cc1cnc2nc(N)nc(N)c2n1)c1ccc(C(=O)N[C@@H](CCC(=O)O)C(=O)O)cc1` [Methotrexate], the solubility in the data set “physchem [1]” (50% w/w hpcd, pH 7.6) worked out at 10000 µg/mL (≈ 22 mM); in the data set “physchem [1]” (water), 45 µg/mL (≈ 0.099 mM).
Take `N[C@@H](Cc1ccc(N(CCCl)CCCl)cc1)C(=O)O` [Melphalan]: the solubility in the data set “physchem [3]” (1% aqueous hpcd) turned out to be 4160 µg/mL (≈ 13.6 mM); in the data set “physchem [3]” (2% aqueous hpcd) it was 4300 µg/mL (≈ 14.1 mM); in “physchem [3]” (3% aqueous hpcd), 6240 µg/mL (≈ 20.4 mM); in the data set “physchem [3]” (4% aqueous hpcd), 7140 µg/mL (≈ 23.4 mM); in the data set “physchem [3]” (5% aqueous hpcd), 7200 µg/mL (≈ 23.6 mM); in the data set “physchem [3]” (7% aqueous hpcd) it was 10500 µg/mL (≈ 34.4 mM). The solubility in the data set “physchem [3]” (10% aqueous hpcd) came to 13400 µg/mL (≈ 43.8 mM); in “physchem [3]” (15% aqueous hpcd) it was 17600 µg/mL (≈ 57.8 mM); in the data set “physchem [3]” (20% aqueous hpcd) it was 24800 µg/mL (≈ 81.1 mM); in “physchem [3]” (25% aqueous hpcd), 31400 µg/mL (≈ 103 mM); in “physchem [3]” (water), 1260 µg/mL (≈ 4.13 mM); in the data set “physchem [3]” (water (0% hpcd)), 1260 µg/mL (≈ 4.13 mM). Besides, the solubility at 4 h in “physchem [3]” was approximately 21900 µg/mL (≈ 71.8 mM).
For `C[C@@H]1C[C@H]2[C@@H]3CCC4=CC(=O)C=C[C@]4(C)[C@@]3(F)[C@@H](O)C[C@]2(C)[C@@]1(O)C(=O)CO` [Dexamethasone], the solubility in “physchem [1]” (25% w/v hpcd) was determined as 24200 µg/mL (≈ 61.6 mM); in the data set “physchem [1]” (50% w/w hpcd) it was 44300 µg/mL (≈ 113 mM); in the data set “physchem [1]” (water), 8 µg/mL (≈ 0.0204 mM).
Regarding Estradiol 17-Valerate, the “Amount of Drug in Dry Complex” value in data set [4] amounted to 23.5 mg/g.
As to `COc1ccc2c(c1)CC[C@@H]1[C@@H]2CC[C@]2(C)[C@@H](O)CC[C@@H]12` [Estradiol 3-Methyl Ether], the concentration in solution in data set [5] (solubility) was 30000 µg/mL (≈ 105 mM).
